Measured values as given in article PMC1435945, “Prediction of indirect interactions in proteins” (BMC Bioinformatics, 2006).
Marks after values point to notes of the source that are not given here. Where a SMILES comes first, the peptide text is derived from it. [ ]: non-standard residue; d: D form. Tyr(3-I) = N[C@@H](Cc1ccc(O)c(I)c1)C(=O)O; Nle = CCCC[C@H](N)C(=O)O

Legend:
[1] = target: MC1 receptor; settings: saturation; MC1 wt.; ref [31]; cited from earlier work
Excerpt: (§1) Table 1 Affinities of multiple chimeric melanocortin receptors.

[2] = target: MC3 receptor; settings: saturation; MC3 wt.; ref [31]; cited from earlier work
Excerpt: as §1

[3] = target: MC4 receptor; settings: saturation; MC4 wt.; ref [31]; cited from earlier work
Excerpt: as §1

[4] = target: MC5 receptor; settings: saturation; MC5 wt.; ref [31]; cited from earlier work
Excerpt: as §1

[5] = target: F354 multiple chimeric melanocortin receptor; test: Radioligand binding saturation, chimera F354; settings: COS-1, F354, F-set, parts A/B/C MC3/MC5/MC4, pK ± SD
[6] = target: F413 multiple chimeric melanocortin receptor; test: Radioligand binding saturation, chimera F413; settings: COS-1, F413, F-set, parts A/B/C MC4/MC1/MC3, pK ± SD
[7] = target: F451 multiple chimeric melanocortin receptor; test: Radioligand binding saturation, chimera F451; settings: COS-1, F451, F-set, parts A/B/C MC4/MC5/MC1, pK ± SD
[8] = target: F514 multiple chimeric melanocortin receptor; test: Radioligand binding saturation, chimera F514; settings: COS-1, F514, F-set, parts A/B/C MC5/MC1/MC4, pK ± SD
[9] = target: S134 multiple chimeric melanocortin receptor; test: Radioligand binding saturation, chimera S134; settings: COS-1, S134, S-set, parts A/B/C MC1/MC3/MC4, pK ± SD
[10] = target: S531 multiple chimeric melanocortin receptor; test: Radioligand binding saturation, chimera S531; settings: COS-1, S531, S-set, parts A/B/C MC5/MC3/MC1, pK ± SD

## CCCC[C@H](NC(=O)[C@H](CO)NC(=O)[C@H](Cc1ccc(O)c(I)c1)NC(=O)[C@H](CO)NC(C)=O)C(=O)NCC(=O)N[C@@H](Cc1c[nH]cn1)C(=O)N[C@H](Cc1ccccc1)C(=O)N[C@@H](CCCNC(=N)N)C(=O)N[C@@H](Cc1c[nH]c2ccccc12)C(=O)NCC(=O)N[C@@H](CCCCN)C(=O)N1CCC[C@H]1C(=O)N[C@H](C(N)=O)C(C)C [^125I-NDP-MSH, [^125I-Tyr^2, Nle^4, D-Phe^7]-α-MSH] (Ac-S[Tyr(3-I)]S[Nle]GH[dF]RWGKPV-NH2)
[1]
  pK (Kd): 9.96^a
[2]
  pK (Kd): 9.40^a
[3]
  pK (Kd): 8.64^a
[4]
  pK (Kd): 8.54^a
[5]
  pK (Kd): 8.80 ± 0.16
[6]
  pK (Kd): 8.62 ± 0.16
[7]
  pK (Kd): 9.06 ± 0.31
[8]
  pK (Kd): 9.19 ± 0.21
[9]
  pK (Kd): 9.30 ± 0.26
[10]
  pK (Kd): 8.96 ± 0.35
